# Target: T1, Recombinant human CBP containing the bromodomain (CBP-BD (1043-1159)) (Homo sapiens, UniProt Q92793)
# T1 construct: Recombinant human CBP bromodomain (CBP-BD (1043-1159)); made in house; host or cells: E. coli BL21-CodonPlus (DE3), modified pET vector
# Assay: CBP Alphascreen binding assay
# Settings: read-out: CREBBP (CBP) IC50
# How it was run: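 Buffer: 50 mM HEPES pH 7.5, 50 mM NaCl, 0.01% BSA, 0.01% Triton X-100, 2 mM DTT. The signal was normalised to plate controls and fitted with a four-parameter curve to give IC50.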
# T1 sequence (Q92793 1081-1197): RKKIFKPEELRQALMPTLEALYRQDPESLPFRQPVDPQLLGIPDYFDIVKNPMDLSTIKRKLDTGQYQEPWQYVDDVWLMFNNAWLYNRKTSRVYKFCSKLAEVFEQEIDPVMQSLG
row,Structure (SMILES),IC50 [nM]
1,"Cc1noc(C)c1-c1cnc2c(c1)c(-c1c(Cl)cc(C(=O)O)cc1OC(F)(F)F)cn2-c1ncccc1C#N [P-0395, 3-chloro-4-(1-(3-cyanopyridin-2-yl)-5-(3,5-dimethylisoxazol-4-yl)-1H-pyrrolo[2,3-b]pyridin-3-yl)-5-(trifluoromethoxy)benzoic acid]",0.1 to 1000
2,"COC(=O)c1cc(-n2cc(Cc3ccccc3)c3ncc(-c4c(C)noc4C)cc32)ccn1 [P-0052, methyl 4-(3-benzyl-6-(3,5-dimethylisoxazol-4-yl)-1H-pyrrolo[3,2-b]pyridin-1-yl)picolinate]",0.1 to 1000
3,"CCOc1cc(C(=O)O)nc(OCC)c1-n1cc(-c2ccc(F)cc2F)c2ncc(-c3c(C)noc3C)cc21 [P-0431, 5-(3-(2,4-difluorophenyl)-6-(3,5-dimethylisoxazol-4-yl)-1H-pyrrolo[3,2-b]pyridin-1-yl)-4,6-diethoxypicolinic acid]",0.1 to 1000
4,"Cc1nnn(C)c1-c1cnc2c(c1)c(-c1ccc(C(=O)O)cc1OC1CC1)cn2C1CCOCC1 [P-0413, 3-cyclopropoxy-4-(5-(1,4-dimethyl-1H-1,2,3-triazol-5-yl)-1-(tetrahydro-2H-pyran-4-yl)-1H-pyrrolo[2,3-b]pyridin-3-yl)benzoic acid]",0.1 to 1000
5,"CCOc1cc(C(=O)O)nc(OCC)c1-c1cn(-c2cn(CC)nc2C)c2ncc(-c3c(C)noc3C)cc12 [P-0430, 5-(5-(3,5-dimethylisoxazol-4-yl)-1-(1-ethyl-3-methyl-1H-pyrazol-4-yl)-1H-pyrrolo[2,3-b]pyridin-3-yl)-4,6-diethoxypicolinic acid]",0.1 to 1000

# Source: patent US11446287B2, “Compounds and methods for EP300 or CBP modulation and indications therefor” (Opna Immuno-Oncology SA, priority 2019, dated 2022)
